Where “and” joins values, the source holds several entries; their conditions need not be identical. Equal entries are not always repeated.
Molecular target: Prostacyclin receptor (Homo sapiens, UniProt P43119)
Sequence (P43119 whole entry): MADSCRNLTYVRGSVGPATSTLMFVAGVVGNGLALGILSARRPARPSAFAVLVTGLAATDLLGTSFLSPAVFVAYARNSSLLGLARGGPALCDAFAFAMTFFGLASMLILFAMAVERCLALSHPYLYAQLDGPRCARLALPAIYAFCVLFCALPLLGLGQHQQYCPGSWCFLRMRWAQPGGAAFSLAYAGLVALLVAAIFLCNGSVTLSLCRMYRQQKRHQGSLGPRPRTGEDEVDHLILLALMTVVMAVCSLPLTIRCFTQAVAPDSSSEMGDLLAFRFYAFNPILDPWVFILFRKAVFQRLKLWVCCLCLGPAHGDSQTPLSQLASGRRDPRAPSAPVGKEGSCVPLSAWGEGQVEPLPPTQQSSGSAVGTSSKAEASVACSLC

`CCCCC[C@@H](O)/C=C/[C@H]1[C@H](O)CC(=O)[C@@H]1C/C=C\CCCC(=O)O` was tested, and the Ki was greater than 10 µM.
Work on `CCCCC[C@@H](O)/C=C/[C@H]1[C@H](O)CC(=O)[C@@H]1CCCCCCC(=O)O` yielded a Ki of 0.137 µM.
Compound `CCCCC[C@H](O)/C=C/[C@@H]1[C@H]2C/C(=C\CCCC(=O)O)C[C@H]2C[C@H]1O` has a Ki of 0.0166 µM.
Compound `CCCCC[C@H](O)/C=C/[C@@H]1[C@@H](CC(=O)CCC(=O)O)[C@@H](O)C[C@H]1O` [2,3-dinor-6-ketoprostaglandin F1alpha] has a Ki greater than 10 µM.
`CCCCC[C@H](O)/C=C/C1[C@H](O)CC(=O)[C@H]1CCCCCCC(=O)O` (stereo partly drawn) [8-ISO PROSTAGLANDIN E1] gave a Ki of 0.735 µM.
In the case of `CCCCCC(=O)CC[C@H]1[C@H](O)CC(=O)[C@@H]1C/C=C\CCCC(=O)O` [13,14-DIHYDRO-15-KETO PROSTAGLANDIN E2], the Ki is reported as 8.41 µM and > 10 µM.
`O=C(O)CCC/C=C\C[C@H]1C(=O)C[C@@H](O)[C@@H]1/C=C/[C@@H](O)CCc1ccccc1` [17-PHENYL TRINOR PROSTAGLANDIN E2] gave a Ki of 4.37 µM.
`CCCCC[C@H](O)/C=C/[C@H]1[C@H](O)CC(=O)[C@@H]1C/C=C/CCCC(=O)O` [(E)-7-((1R,2R,3R)-3-hydroxy-2-((S,E)-3-hydroxyoct-1-enyl)-5-oxocyclopentyl)hept-5-enoic acid] was tested, and the Ki was 0.735 µM.
With `CCCCC[C@H](O)/C=C/C1[C@H](O)C[C@H](O)[C@@H]1C/C=C\CCCC(=O)O` (stereo partly drawn) [(Z)-7-[(1R,3R,5S)-3,5-Dihydroxy-2-((E)-(S)-3-hydroxy-oct-1-enyl)-cyclopentyl]-hept-5-enoic acid] the Ki was greater than 10 µM.
For `CCCCC[C@H](O)CC[C@H]1[C@H](O)CC(=O)[C@@H]1CCCCCCC(=O)O` [CAS_19313-28-1], the Ki was 0.315 µM.
For `CCCCCC(O)C=CC1C(O)CC2OC(CCCCC(=O)O)CC21` (stereo not drawn) [CAS_162981], the Ki was 7.35 µM.
In the case of `CCCCC[C@H](O)/C=C/[C@H]1[C@H](O)CC(=O)[C@@H]1C/C=C\CCCC(=O)O` [DINOPROSTONE], the Ki is reported as greater than 10 µM.
`CCCCCC(O)C=CC1C(O)CC(O)C1CCCCCCC(=O)O` (stereo not drawn) [NSC_5280939] was tested, and the Ki was greater than 10 µM.

From BindingDB's records for doi:10.1111/j.1476-5381.1981.tb10994.x (Royal Postgraduate Medical School, 1981)
